Experimental data reported in patent US20250250265A1, “BENZOTHIAZOLE-PHENYLSULFONYL-PIPERIDINE ANALOGS AS ACTIVATORS OF NACYLPHOSPHATIDYLETHANOLAMINE HYDROLYZING PHOSPHOLIPASE D” (priority 2022, published 2025).
Marks after values point to notes of the source that are not given here.

What follows are molecules tested against T1, Fatty Acid Amide Hydrolase (FAAH) (Homo sapiens, UniProt O00519) (assay: FAAH activity assay (Cayman Chemicals)). Details: 33 μM compound, compared to vehicle (0%).
T1 construct: purchased Cayman Chemicals
T1 sequence (O00519 1-579): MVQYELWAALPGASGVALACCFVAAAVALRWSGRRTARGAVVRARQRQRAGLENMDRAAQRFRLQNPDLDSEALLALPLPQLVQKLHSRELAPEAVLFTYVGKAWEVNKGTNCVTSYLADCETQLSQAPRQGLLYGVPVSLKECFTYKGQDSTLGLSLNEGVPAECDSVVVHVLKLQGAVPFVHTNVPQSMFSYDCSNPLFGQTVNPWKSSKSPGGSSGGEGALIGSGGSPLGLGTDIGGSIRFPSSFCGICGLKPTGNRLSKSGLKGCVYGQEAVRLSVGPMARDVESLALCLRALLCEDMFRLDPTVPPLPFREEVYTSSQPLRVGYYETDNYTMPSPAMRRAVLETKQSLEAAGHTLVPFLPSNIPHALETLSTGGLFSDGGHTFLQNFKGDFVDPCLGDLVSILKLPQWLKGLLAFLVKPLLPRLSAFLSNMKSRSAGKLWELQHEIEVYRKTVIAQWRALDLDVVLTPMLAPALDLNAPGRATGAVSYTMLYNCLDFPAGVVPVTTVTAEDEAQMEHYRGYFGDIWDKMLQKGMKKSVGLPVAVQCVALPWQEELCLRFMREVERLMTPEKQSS
Format: biochemical
Experimental: (§1) Concentration response curves were plotted for VU534 for the enzymes fatty acid amide hydrolase (FAAH) and soluble epoxide hydrolase (sEH).
(§2) The fluorescence interference assay was performed using the same method as the HTS assay, but with BODIPY-FL C5 (Thermo Fisher Scientific) used in place of PED-A1. sEH and FAAH activity assays were performed according to the manufacturer's specifications (Cayman Chemicals).

Structure (SMILES) | inhibition at 33 µM
Cc1cc(F)ccc1S(=O)(=O)N1CCC(C(=O)Nc2nc3c(C)cccc3s2)CC1 [MRJ-058A] | 20%

These molecules were tested against T2, soluble epoxide hydrolase (sEH) (Homo sapiens, UniProt P34913) (assay: sEH activity assay (Cayman Chemicals)). Details: 33 μM compound, compared to vehicle (0%).
T2 construct: purchased Cayman Chemicals
T2 sequence (P34913 1-555): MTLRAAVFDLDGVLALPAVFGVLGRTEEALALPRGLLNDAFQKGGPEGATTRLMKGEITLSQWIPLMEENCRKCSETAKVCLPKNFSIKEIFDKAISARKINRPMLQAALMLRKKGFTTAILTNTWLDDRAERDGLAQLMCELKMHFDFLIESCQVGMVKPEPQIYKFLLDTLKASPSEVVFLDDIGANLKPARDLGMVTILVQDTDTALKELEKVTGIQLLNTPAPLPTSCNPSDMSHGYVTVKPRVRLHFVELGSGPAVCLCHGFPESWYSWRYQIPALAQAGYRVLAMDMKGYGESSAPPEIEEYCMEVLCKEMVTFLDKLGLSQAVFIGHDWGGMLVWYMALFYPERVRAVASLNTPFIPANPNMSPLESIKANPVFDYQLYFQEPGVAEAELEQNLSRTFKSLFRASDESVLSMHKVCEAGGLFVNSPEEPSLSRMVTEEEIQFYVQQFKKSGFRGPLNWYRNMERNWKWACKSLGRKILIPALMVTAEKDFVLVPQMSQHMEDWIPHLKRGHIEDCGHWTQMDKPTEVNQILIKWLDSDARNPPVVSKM
Format: biochemical
Experimental: as §1, §2

Structure (SMILES) | inhibition at 33 µM
Cc1cc(F)ccc1S(=O)(=O)N1CCC(C(=O)Nc2nc3c(C)cccc3s2)CC1 [MRJ-058A] | 85%

What follows are molecules tested against T3, recombinant mouse NAPE-PLD (Mus musculus, UniProt Q8BH82) (assay: In vitro fluorescence NAPE-PLD activity assay (HTS/CRC) with recombinant mouse NAPE-PLD and PED-A1). Details: Table 1; concentration for 50% maximum activation from basal activity (no activator).
T3 construct: hexahistidine (His6) (C); made in house; host or cells: E. coli
T3 sequence (Q8BH82 1-396): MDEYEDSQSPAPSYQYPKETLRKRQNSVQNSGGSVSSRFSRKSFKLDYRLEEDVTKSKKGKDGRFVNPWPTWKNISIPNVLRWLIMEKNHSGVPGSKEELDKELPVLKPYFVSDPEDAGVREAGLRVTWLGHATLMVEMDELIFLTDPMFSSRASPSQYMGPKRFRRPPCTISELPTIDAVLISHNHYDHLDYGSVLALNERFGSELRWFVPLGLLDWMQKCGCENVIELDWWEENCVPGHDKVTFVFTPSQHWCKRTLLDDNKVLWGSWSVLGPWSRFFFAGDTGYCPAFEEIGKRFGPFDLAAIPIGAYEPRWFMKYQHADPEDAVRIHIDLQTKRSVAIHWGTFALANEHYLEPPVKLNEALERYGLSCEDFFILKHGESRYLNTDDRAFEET
Format: biochemical
Experimental: Using the fluorogenic NAPE substrate, PED-A1, and recombinant mouse NAPE-PLD (rNAPE-PLD), an in vitro high-throughput (HTS) assay was conducted to screen ˜40,000 compounds for their ability to modulate NAPE-PLD activity. The HTS assay enabled the detection of both NAPE-PLD activators and inhibitors. […] Initial structure-activity response studies with the top hits identified benzothiazole phenylsulfonyl-piperidine carboxamide analogs (BT-PSP analogs) as lead compounds for NAPE-PLD activators (Table 1). The lead BT-PSP analog identified, VU534, induces 50% of its activation effect on NAPE-PLD at 270 nM (AC50 270 nM), and induces a maximal effect of 195% of basal NAPE-PLD activity (Table 1).
In vitro fluorescence NAPE-PLD activity assays using recombinant NAPE-PLD and either PED-A1 or flame-NAPE as fluorogenic substrate were performed as previously described except with small modifications as noted below. See Aggarwal et al., J. Biol. Chem. 295(21): 7289-7300 (2020); Zarrow et al., J. Lipid Res. 63(1): 100156 (2022).
For the HTS assays, test compounds were incubated with recombinant enzyme for 1 h prior to adding PED-A1 (final 0.4 μM) mixed with N-palmitoyl-dioleoyl-PE (final 3.6 μM) to adjust for the high sensitivity of the Panoptic instrument (WaveFront Biosciences). Assays used black-wall, clear-bottom, non-sterile, and non-treated 384-well plates (Greiner Bio-One 781906). The assay was read in kinetic fluorescence mode on the Panoptic instrument for 4 min and the slope of the signal from 30-100 s was used for analysis. A total of 39,328 compounds from the Vanderbilt Discovery Collection were tested, each at 10 μM. The tested compounds were chosen to represent a structurally diverse selection from the full library. Each 384-well plate included 320 test compound wells and 64 control wells. Unlike previous pilot screening assays, bithionol (10 μM final) was used in place of lithocholic acid (100 μM final) as the inhibitor control. Before performing high-throughput screening, a checkerboard assay was performed to validate the assay parameters. This yielded a Z′ score of 0.676. Z′ scores were also calculated for each plate during screening, and plates with scores <0.5 were re-run. The average Z′ across all screening plates was 0.52, and the total hit rate was 3.6%. B-scores were calculated from the initial slopes across each plate using WaveGuide software (WaveFront Biosiences). Modulator hits were defined as compounds with absolute B-scores of 3 or higher. The number of compounds in various B-score ranges were as follows: […], 12 compounds; −10 to −5, 221 compounds; −5 to −3, 770 compounds; −3 to 3, 37924 compounds; 3 to 4, 314 compounds; 4 to 6, 70 compounds; 6 to 10, 15 compounds. Activator hits with B-scores of >3 were selected for the replication assay and a selection of analogs of the activators.
Concentration response curve (CRC) experiments used the same assay conditions as the HTS assay, except that graded concentrations of each test compound were used, with total amount of vehicle (DMSO) kept constant. CRC experiments with purified recombinant mouse NAPE-PLD were performed on two separate days, with values from each day normalized to vehicle only controls on same plate, and then all normalized values from both days averaged together. CRC experiments with human NAPE-PLD represent value from only a single day, due to limited amounts of this recombinant enzyme.

Structure (SMILES) | AC50 (nM) | AC50
Cc1cccc2sc(NC(=O)C3CCN(S(=O)(=O)c4ccc(F)cc4)CC3)nc12 [VU231] | Not active | 
Cc1ccc2nc(NC(=O)C3CCN(S(=O)(=O)c4ccc(Cl)cc4)CC3)sc2c1 [VU539] |  | 2380 nM
Cc1cccc2sc(NC(=O)C3CCN(S(=O)(=O)c4ccc(Cl)cc4)CC3)nc12 [VU542] | Not active | 
COc1ccc(S(=O)(=O)N2CCC(C(=O)Nc3nc4c(C)cccc4s3)CC2)cc1 [VU605] |  | 1040 nM

Same assay, conditions: Table 1; maximum induced activity compared to basal (100%) activity

Structure (SMILES) | Max % bA (%)
Cc1cccc2sc(NC(=O)C3CCN(S(=O)(=O)c4ccc(F)cc4)CC3)nc12 [VU231] | <120%
Cc1ccc2nc(NC(=O)C3CCN(S(=O)(=O)c4ccc(Cl)cc4)CC3)sc2c1 [VU539] | 170%
Cc1cccc2sc(NC(=O)C3CCN(S(=O)(=O)c4ccc(Cl)cc4)CC3)nc12 [VU542] | <120%
COc1ccc(S(=O)(=O)N2CCC(C(=O)Nc3nc4c(C)cccc4s3)CC2)cc1 [VU605] | 170%

Same assay, conditions: Table 2; maximal induced activity for recombinant NAPE-PLD compared to basal (100%); read-out: Emax (%)

Structure (SMILES) | Emax
Cc1cc(F)ccc1S(=O)(=O)N1CCC(C(=O)Nc2nc3c(C)cccc3s2)CC1 [MRJ-058A] | 150%
Cc1cccc2sc(NC(=O)C3CCN(S(=O)(=O)c4ccc(F)cc4)CC3)nc12 [VU231] | < 120%
O=C(Nc1nc2ccccc2s1)C1CCN(S(=O)(=O)c2ccc(F)cc2)CC1 [VU488] | 135%
Cc1ccc2nc(NC(=O)C3CCN(S(=O)(=O)c4ccc(Cl)cc4)CC3)sc2c1 [VU539] | 170%
Cc1cccc2sc(NC(=O)C3CCN(S(=O)(=O)c4ccc(Cl)cc4)CC3)nc12 [VU542] | < 120%
COc1ccc(S(=O)(=O)N2CCC(C(=O)Nc3nc4c(C)cccc4s3)CC2)cc1 [VU605] | < 120%

Same assay, conditions: Table 2; rNAPE-PLD activity assay

Structure (SMILES) | EC50 (μM)
Cc1cccc2sc(NC(=O)C3CCN(S(=O)(=O)c4ccc(F)cc4)CC3)nc12 [VU231] | Inactive
Cc1cccc2sc(NC(=O)C3CCN(S(=O)(=O)c4ccc(Cl)cc4)CC3)nc12 [VU542] | Inactive
COc1ccc(S(=O)(=O)N2CCC(C(=O)Nc3nc4c(C)cccc4s3)CC2)cc1 [VU605] | Inactive

Same assay, conditions: Table 2; rNAPE-PLD activity assay; read-out: EC50

Structure (SMILES) | EC50
Cc1cc(F)ccc1S(=O)(=O)N1CCC(C(=O)Nc2nc3c(C)cccc3s2)CC1 [MRJ-058A] | 2900 nM
O=C(Nc1nc2ccccc2s1)C1CCN(S(=O)(=O)c2ccc(F)cc2)CC1 [VU488] | 390 nM
Cc1ccc2nc(NC(=O)C3CCN(S(=O)(=O)c4ccc(Cl)cc4)CC3)sc2c1 [VU539] | 2380 nM

Same assay, conditions: Table 3; read-out: In vitro EC50

Structure (SMILES) | EC50
Cc1cccc2sc(NC(=O)C3CCN(S(=O)(=O)c4ccc(F)cc4)CC3)nc12 [VU231] | 1100 nM
O=C(Nc1nc2ccccc2s1)C1CCN(S(=O)(=O)c2ccc(F)cc2)CC1 [VU488] | 390 nM
Cc1ccc2nc(NC(=O)C3CCN(S(=O)(=O)c4ccc(Cl)cc4)CC3)sc2c1 [VU539] | 2400 nM
Cc1cccc2sc(NC(=O)C3CCN(S(=O)(=O)c4ccc(Cl)cc4)CC3)nc12 [VU542] | 1100 nM
COc1ccc(S(=O)(=O)N2CCC(C(=O)Nc3nc4c(C)cccc4s3)CC2)cc1 [VU605] | ~200 nM

Same assay, conditions: Table 3; read-out: In vitro Emax (100% activity is baseline activity of vehicle only)

Structure (SMILES) | Emax
Cc1cccc2sc(NC(=O)C3CCN(S(=O)(=O)c4ccc(F)cc4)CC3)nc12 [VU231] | 168%
O=C(Nc1nc2ccccc2s1)C1CCN(S(=O)(=O)c2ccc(F)cc2)CC1 [VU488] | 136%
Cc1ccc2nc(NC(=O)C3CCN(S(=O)(=O)c4ccc(Cl)cc4)CC3)sc2c1 [VU539] | 167%
Cc1cccc2sc(NC(=O)C3CCN(S(=O)(=O)c4ccc(Cl)cc4)CC3)nc12 [VU542] | 183%
COc1ccc(S(=O)(=O)N2CCC(C(=O)Nc3nc4c(C)cccc4s3)CC2)cc1 [VU605] | ~119%

Same assay, conditions: Table 4; maximal efficacy as fold increase in NAPE-PLD activity versus vehicle only

Structure (SMILES) | Emax (95% Cl)
Cc1cccc2sc(NC(=O)C3CCN(S(=O)(=O)c4ccc(F)cc4)CC3)nc12 [VU231] | 2.0^d fold
O=C(Nc1nc2ccccc2s1)C1CCN(S(=O)(=O)c2ccc(F)cc2)CC1 [VU488] | 1.7 (1.6-1.8) fold
Cc1ccc2nc(NC(=O)C3CCN(S(=O)(=O)c4ccc(Cl)cc4)CC3)sc2c1 [VU539] | 1.7 (1.6-1.8) fold
Cc1cccc2sc(NC(=O)C3CCN(S(=O)(=O)c4ccc(Cl)cc4)CC3)nc12 [VU542] | 1.9 (1.9-2.0) fold
COc1ccc(S(=O)(=O)N2CCC(C(=O)Nc3nc4c(C)cccc4s3)CC2)cc1 [VU605] | 2.1 (2.0-2.2) fold

These molecules were tested on RAW264.7 mouse macrophages (assay: Cytotoxicity (MTT) in RAW264.7 macrophages). Details: Table 2; Mϕ, 33 μM compound.
Format: cell-based
Experimental: Cytotoxicity was measured using MTT as previously described except that the studies used 96-well plates with 100 μL of 0.3 mg/mL MTT solution was added after 24 h of treatment and then replaced after 3 h with 0.1 M HCl in isopropanol. See Aggarwal et al., J. Biol. Chem. 295(21): 7289-7300 (2020). Viability was expressed as percent absorbance at 560 nm relative to vehicle controls.

Structure (SMILES) | 33 μM Mϕ % Viability
Cc1cc(F)ccc1S(=O)(=O)N1CCC(C(=O)Nc2nc3c(C)cccc3s2)CC1 [MRJ-058A] | 55%
